Patent US20040138193A1, “Oestrogen fatty acid monoester as a hypolipidaemic and antidiabetic agent” (priority 2001, published 2004)

Tests used:
lipoprotein lipase = assay: Lipoprotein lipase activity in plasma and tissues of treated lean and obese rats; format: in vivo, rat; conditions: for Lipoprotein-lipase activity, WAT mesenteric, whole tissue of the rat / Lipoprotein-lipase activity, WAT periovaric, whole tissue of the rat / Lipoprotein-lipase activity, Muscle, whole tissue of the rat: 10 μmol/kg · d; for Lipoprotein-lipase activity, WAT mesenteric, whole tissue of the rat: calculated assuming all WAT had the specific activity of mesenteric WAT; for Lipoprotein-lipase activity, WAT periovaric, whole tissue of the rat: calculated assuming all WAT had the specific activity of periovaric WAT; for Lipoprotein-lipase activity, Liver, per gram of tissue protein / Lipoprotein-lipase activity, Liver, per unit of tissue weight / Lipoprotein-lipase activity, Liver, whole organ of the rat / Lipoprotein-lipase activity, Muscle, per gram of tissue protein / Lipoprotein-lipase activity, Muscle, per unit of tissue weight / Lipoprotein-lipase activity, Plasma / Lipoprotein-lipase activity, Plasma, per gram of protein / Lipoprotein-lipase activity, WAT mesenteric, per gram of tissue protein / Lipoprotein-lipase activity, WAT mesenteric, per unit of tissue weight / Lipoprotein-lipase activity, WAT periovaric, per gram of tissue protein / Lipoprotein-lipase activity, WAT periovaric, per unit of tissue weight / Lipoprotein-lipase activity, Plasma, whole compartment of the rat: daily gavage 10 μmol/kg · d; for Lipoprotein-lipase activity, Plasma, whole compartment of the rat: plasma mass taken as 2.75% of body weight; for overall lipoprotein lipase activity in the rat (muscle + liver + plasma + WAT): rough estimate
Procedure: Liver, muscle and WAT (white adipose tissue) samples were homogenized in 10 mM hepes buffer pH 7.5, containing 250 mM sucrose, 1 MM-EDTA and 1 mM dithiothreitol in order to measure lipoprotein lipase activity in tissues. Homogenates were clarified by centrifugation (10 min at 10,000×g) at 4° C. The assay mixture (pH 7.5) contained 0.6 mM tri-[9,10(n)-^3H]-oleoyl-glycerol, 50 mM MgCl2, 0.5 g/L albumin (fatty acid-free), 3 ml/L preheated (60 min at 50° C.)rat serum, 25 mM PIPES buffer and 0.02 ml of sample in a final volume of 0.2 ml; the incubation was carried out for 30 min at 25° C.; after the reaction was stopped, the [^3H]-oleate evolved was quantified. All measurements of lipoprotein lipase activity in plasma and liver homogenates were carried out in the presence of anti-rat hepatic lipase antiserum. The homogenate and plasma protein content were determined with the Bradford method.
The enzyme activity was expressed in nkat/L of plasma of nkat/kg of tissue; the values were also referred to plasma or tissue protein content. The overall share of potential activity of the enzymes studied was also estimated by determining the contribution of each organ/tissue: plasma, liver and WAT (white adipose tissue) enzyme activity in relation to body mass. The results are expressed as the total activity found per kg of body weight in a given tissue or compartment. The liver was directly weighed (3.38±0.10% of BW (body weight) for lean and 3.17±0.13% of BW for the obese). The mass of plasma was taken as a 2.75% of body weight (blood being 5% of body weight, and packed cell volume 45% of that value). Overall WAT lipoprotein lipase activity in both groups of animals was calculated using the mean values for either the periovaric or mesenteric locations of both sets of data and the proportions of WAT published for lean [15% of BW] control and oleoyl-estrone-treated [7% of BW] and obese Zucker fa/fa rat [35% BW] control and oleoyl-estrone-treated [28% BW]. Muscle mass was calculated also as a proportion of body weight: 43% for lean and 33 for obese rats.
Statistical analysis of the differences between groups was established using ANOVA programs and the Student's t test.

Zucker fa/fa rat = assay: Plasma parameters after 10 days of daily oral gavage in Zucker fa/fa rats (type 2 diabetes model); format: in vivo; conditions: for plasma 3-hydroxybutyrate / plasma non-esterified fatty acids / plasma glucose / plasma insulin / plasma total cholesterol / plasma triacylglycerols: 10 days
Procedure: A study was carried out using the Zucker fa/fa rat as experimental animal model for type 2 diabetes. In these rats a marked insulin resistance is known; their circulating glucose levels are somewhat higher than in normal rats, but their insulin levels are much higher and show marked hypertriacylglycerolemia and hypercholesterolemia. Four groups of adult Zucker fa/fa rats were used, two groups of 6 male rats each and two groups of 6 female rats each. For each sex, the first group was used as control and the other was treated with the drug. All rats were kept under standard housing conditions, with free access to water and pellet food. The animals received a daily gavage of 0.2 ml of sunflower oil by means of a stomach tube. In the treated-rat groups, the oil contained enough oleoyl-estrone dissolved to provide a daily dose of 10 micromol per kg of rat weight. After 10 days of daily gavages, the rats were killed and their blood was recovered, being used to obtain plasma by centrifugation. Plasma samples were used for the analysis of glucose, total cholesterol and triacylglycerols by means of a dry-strip procedure (Spotchem, Menarini, Firenze, Italy), the levels of 3-hydroxybutyrate were measured with the kit 907979 from Boehringer Mannheim (Mannheim, Germany), and non-esterified fatty acids with the kit 1383175 from the same company. Insulin levels were measured through radioimmunoassay (rat insulin kit, Amersham, Amersham, United Kingdom).

obese rats = assay: Lipoprotein separation by ultracentrifugation and lipid composition analysis, obese rats; format: in vivo, rat; conditions: 10 μmol/kg daily, vs controls
Description: FIG. 4 is analogous to FIG. 3, but for obese rats.
Lipoproteins in fresh plasma were fractionated by differential ultracentrifugation in known density media obtained through the addition of KBr. […] These fractions were used for the analysis of protein and lipidic components, and for the estimation of particle size.
Whole plasma, lipoprotein fractions and LPdp were used for the analysis of protein and lipid content. Total protein was estimated with the Bradford method (cf. M. M. Bradford, Anal. Biochem. 1976, vol. 72, pp. 248-254). Total cholesterol was measured in saline with a high-performance cholesterol kit. Triacylglycerol concentrations were measured with a commercial kit and the results were corrected for free glycerol. Phospholipid was quantified by a choline-based method. […] Recoveries for all plasma components (i.e. deviations from the values in whole plasma and those derived from the sum of its content in lipoprotein fractions) were lowest for triacylglycerols (88±3%) and highest for protein (92±3%). Sudan black-prestained serum samples were sepparated by polyacrylamide gel electrophoresis. Separation of lipoprotein classes through centrifugation allowed a detailed analysis of lipoprotein composition as shown in FIGS. 3 and 4.

[1] = Zucker fa/fa rats, oral treatment vs controls
[2] = Zucker fa/fa rats, oral treatment vs controls, P<0.05
[3] = female obese Zucker fa/fa rats, 10 μmol/kg · d oral gavage
[4] = female obese Zucker fa/fa rats, 10 mol/kg · d oral gavage
[5] = male obese Zucker fa/fa rats, 10 μmol/kg · d oral gavage

CCCCCCCC/C=C\CCCCCCCC(=O)Oc1ccc2c(c1)CC[C@@H]1[C@@H]2CC[C@]2(C)C(=O)CC[C@@H]12 [oleoyl-estrone]
overall loss of lipoprotein lipase because of treatment (lipoprotein lipase; lean animals, vs control): 37% | effect on lipoprotein lipase activity in plasma (lipoprotein lipase; lean rats, vs controls): generalized rise | effect on lipoprotein lipase activity of the tissues studied (lipoprotein lipase; lean rats, vs controls): did not affect significantly | Lipoprotein-lipase activity, WAT mesenteric, whole tissue of the rat (lipoprotein lipase; lean rats): 133 ± 64 nkat/rat | Lipoprotein-lipase activity, WAT periovaric, whole tissue of the rat (lipoprotein lipase; lean rats): 33.2 ± 5.0 nkat/rat | Lipoprotein-lipase activity, Muscle, whole tissue of the rat (lipoprotein lipase; lean rats, muscle mass calculated as 43% of body weight): 8.79 ± 0.72 nkat/rat | Lipoprotein-lipase activity, Liver, per gram of tissue protein (lipoprotein lipase; lean rats): 1.74 ± 0.32 nkat/g P | Lipoprotein-lipase activity, Liver, per unit of tissue weight (lipoprotein lipase; lean rats): 204 ± 48 pkat/g | Lipoprotein-lipase activity, Liver, whole organ of the rat (lipoprotein lipase; lean rats): 1.12 ± 0.34 nkat/rat | Lipoprotein-lipase activity, Muscle, per gram of tissue protein (lipoprotein lipase; lean rats): 3.09 ± 0.57 nkat/g P | Lipoprotein-lipase activity, Muscle, per unit of tissue weight (lipoprotein lipase; lean rats): 110.3 ± 41.3 pkat/g | Lipoprotein-lipase activity, Plasma (lipoprotein lipase; lean rats): 11.76 ± 1.75 pkat/mL | Lipoprotein-lipase activity, Plasma, per gram of protein (lipoprotein lipase; lean rats): 147.8 ± 18.9 pkat/g P | Lipoprotein-lipase activity, WAT mesenteric, per gram of tissue protein (lipoprotein lipase; lean rats): 779 ± 384 nkat/g P | Lipoprotein-lipase activity, WAT mesenteric, per unit of tissue weight (lipoprotein lipase; lean rats): 10.25 ± 4.94 nkat/g | Lipoprotein-lipase activity, WAT periovaric, per gram of tissue protein (lipoprotein lipase; lean rats): 317 ± 111 nkat/g P | Lipoprotein-lipase activity, WAT periovaric, per unit of tissue weight (lipoprotein lipase; lean rats): 2.56 ± 0.39 nkat/g | Lipoprotein-lipase activity, Plasma, whole compartment of the rat (lipoprotein lipase; lean rats): 59.2 ± 11.6 pkat/rat | overall lipoprotein lipase activity in the rat (muscle + liver + plasma + WAT) (lipoprotein lipase; lean treated rats): 152 nkat | decrease in mesenteric WAT lipoprotein lipase (lipoprotein lipase; lean, vs control): 64% | decrease in periovaric WAT lipoprotein lipase (lipoprotein lipase; lean, vs control): 45% | overall loss of lipoprotein lipase because of treatment (lipoprotein lipase; obese animals, vs control): 51% | change of lipoprotein lipase activity in skeletal muscle (lipoprotein lipase; obese rats, vs control): increased fourfold | effect on lipoprotein lipase activity in WAT (lipoprotein lipase; obese rats, vs controls): decreases | effect on lipoprotein lipase activity in liver (lipoprotein lipase; obese rats, vs controls): no changes | effect on lipoprotein lipase activity in plasma (lipoprotein lipase; obese rats, vs controls): increases | Lipoprotein-lipase activity, WAT mesenteric, whole tissue of the rat (lipoprotein lipase; obese rats): 129 ± 27 nkat/rat | Lipoprotein-lipase activity, WAT periovaric, whole tissue of the rat (lipoprotein lipase; obese rats): 135 ± 19 nkat/rat | Lipoprotein-lipase activity, Muscle, whole tissue of the rat (lipoprotein lipase; obese rats, muscle mass calculated as 33% of body weight): 152 ± 18 nkat/rat | Lipoprotein-lipase activity, Liver, per gram of tissue protein (lipoprotein lipase; obese rats): 1.41 ± 0.21 nkat/g P | Lipoprotein-lipase activity, Liver, per unit of tissue weight (lipoprotein lipase; obese rats): 182 ± 27 pkat/g | Lipoprotein-lipase activity, Liver, whole organ of the rat (lipoprotein lipase; obese rats): 2.48 ± 0.26 nkat/rat | Lipoprotein-lipase activity, Muscle, per gram of tissue protein (lipoprotein lipase; obese rats): 40.8 ± 4.4 nkat/g P | Lipoprotein-lipase activity, Muscle, per unit of tissue weight (lipoprotein lipase; obese rats): 1383 ± 168 pkat/g | Lipoprotein-lipase activity, Plasma (lipoprotein lipase; obese rats): 7.19 ± 1.76 pkat/mL | Lipoprotein-lipase activity, Plasma, per gram of protein (lipoprotein lipase; obese rats): 107.1 ± 23.6 pkat/g P | Lipoprotein-lipase activity, WAT mesenteric, per gram of tissue protein (lipoprotein lipase; obese rats): 1767 ± 420 nkat/g P | Lipoprotein-lipase activity, WAT mesenteric, per unit of tissue weight (lipoprotein lipase; obese rats): 1.40 ± 0.29 nkat/g | Lipoprotein-lipase activity, WAT periovaric, per gram of tissue protein (lipoprotein lipase; obese rats): 245 ± 51 nkat/g P | Lipoprotein-lipase activity, WAT periovaric, per unit of tissue weight (lipoprotein lipase; obese rats): 1.46 ± 0.21 nkat/g | Lipoprotein-lipase activity, Plasma, whole compartment of the rat (lipoprotein lipase; obese rats): 51.4 ± 9.3 pkat/rat | overall lipoprotein lipase activity in the rat (muscle + liver + plasma + WAT) (lipoprotein lipase; obese treated rats): 338 nkat | decrease in mesenteric WAT lipoprotein lipase (lipoprotein lipase; obese, vs control): 87% | decrease in periovaric WAT lipoprotein lipase (lipoprotein lipase; obese, vs control): 56% | change in 3-hydroxybutyrate (Zucker fa/fa rat; [1]): no changes | change in insulin levels (Zucker fa/fa rat; [1]): marked decrease | change in non-esterified fatty acids (Zucker fa/fa rat; [1]): no changes | change in plasma concentration of glucose (Zucker fa/fa rat; [2]): significant decreases | change in plasma concentration of total cholesterol (Zucker fa/fa rat; [2]): significant decreases | change in plasma concentration of triacylglycerols (Zucker fa/fa rat; [2]): significant decreases | plasma 3-hydroxybutyrate (Zucker fa/fa rat; [3]): 187 ± 26 µM | plasma non-esterified fatty acids (Zucker fa/fa rat; [3]): 642 ± 52 µM | plasma glucose (Zucker fa/fa rat; [4]): 4.91 ± 0.17 mM | plasma insulin (Zucker fa/fa rat; [4]): 1.78 ± 0.21 nM | plasma total cholesterol (Zucker fa/fa rat; [4]): 1.59 ± 0.29 mM | plasma triacylglycerols (Zucker fa/fa rat; [4]): 1.80 ± 0.17 mM | plasma 3-hydroxybutyrate (Zucker fa/fa rat; [5]): 281 ± 31 µM | plasma glucose (Zucker fa/fa rat; [5]): 6.14 ± 0.13 mM | plasma insulin (Zucker fa/fa rat; [5]): 1.11 ± 0.12 nM | plasma non-esterified fatty acids (Zucker fa/fa rat; [5]): 720 ± 110 µM | plasma total cholesterol (Zucker fa/fa rat; [5]): 1.77 ± 0.26 mM | plasma triacylglycerols (Zucker fa/fa rat; [5]): 1.88 ± 0.19 mM | change of HDL components (obese rats): all components decreased again with treatment, except for triacylglycerols | change of LDL components (obese rats): only tricylglycerol levels decreased | change of chylomicra and VLDL components (obese rats): marked decreases | change of total phospholipid levels in lipoprotein-depleted plasma (obese rats): decrease | levels of all lipid classes in whole plasma (obese rats): markedly lower levels
